≈ marks a conversion by molar mass, not a printed value. Where two headings read alike, the source gives them in different places.
How the values were obtained:
[1] = system: Staphylococcus aureus ATCC 43300 (MRSA); test: Broth dilution MIC/MBC, reference strain; assay type: cell-based
Outline: (§1)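 Compounds were serially diluted in Mueller Hinton Broth 2, inoculated at 5 × 10^5 cfu/mL and incubated at 37 °C for 18 h. Samples were then plated on Tryptic Soy Agar for 48 h at 37 °C to obtain bactericidal or fungicidal endpoints.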

[2] = system: Staphylococcus epidermidis PCM 2118; test: Broth dilution MIC/MBC, reference strain; assay type: cell-based
Outline: as §1

[3] = system: Candida albicans ATCC 10231; test: Broth dilution MIC/MFC, reference fungal strain; assay type: cell-based
Method: The tests were carried out using a serial dilution method, allowing the determination of MIC (minimal concentration inhibiting bacterial growth), MBC (minimal bactericidal concentration), and MFC (minimal fungicidal concentration) values.
(§2) Antimicrobial activity was tested using the following reference strains: Staphylococcus aureus ATCC 6538 (MSSA), Staphylococcus aureus ATCC 43300 (MRSA), Staphylococcus epidermidis PCM 2118, Escherichia coli ATCC 11229, Pseudomonas aeruginosa ATCC 15442, Proteus vulgaris NCTC 4635, Enterococcus faecalis ATCC 11420, and Candida albicans ATCC 10231.
(§3) A broth dilution method was used to determine minimal inhibitory concentration (MIC) for tested compounds as recommended by Clinical Laboratory Standards Institute (CLSI) guidelines. Investigated compounds were diluted in Mueller Hinton Broth 2 (Sigma-Aldrich Co., St. Louis, MO, USA) in polypropylene 96-well plates and initial inoculum 5 × 10^5 cfu/mL were incubated at 37 °C for 18 h. MIC was taken as the lowest drug concentration at which an observable growth was inhibited. […] The loopful (10 µL) of the tested sample was transferred to Tryptic Soy Agar (TSA, Becton-Dickinson, Franklin Lakes, NJ, USA) and incubated at 37 °C for 48 h. […] Drug Solutions were made fresh on the day of the assay. All experiments were performed in triplicate.

[4] = system: S.aureus 50 (MRSA); test: Broth dilution MIC/MBC, clinical MRSA isolate; assay type: cell-based; conditions: Staphylococcus aureus, clinical MRSA S.aureus 50
Source text: (§4) […]. Both MRSA and MSSA strains were derived from various human infections.
(§5) […]. Five methicillin-resistant S. aureus strains were isolated from nose (n = 1), bronchoalveolar lavage (n = 1), sputum (n = 1), wound (n = 1), and blood (n = 1); five methicillin-susceptible S. aureus strains were isolated from throat (n = 1), bronchoalveolar lavage (n = 1), sputum (n = 1), abscess (n = 1), and blood (n = 1).
(§6) The identity of S. aureus isolates was confirmed with conventional methods and with Pastorex Staph-Plus latex agglutination kit (Bio-Rad, Marnes-la-Coquette, France) and verified applying the polymerase chain reaction (PCR) of S. aureus-specific region of the thermonuclease gene, nuc. Resistance to methicillin was first verified using cefoxitin disk (30 µg), and then, identified based on the presence of mecA gene. S. aureus ATCC®25923 (methicillin-susceptible) and S. aureus ATCC®43300 (MDR) were applied as the reference strains. Both the reference and clinical strains were stored at −80 °C, in Tryptic Soy Broth (TSB, Becton-Dickinson, Franklin Lakes, NJ, USA) supplemented with 15% glycerol.
as §3

[5] = system: S.aureus 51 (MRSA); test: Broth dilution MIC/MBC, clinical MRSA isolate; assay type: cell-based; conditions: Staphylococcus aureus, clinical MRSA S.aureus 51
Source text: as §4, §5, §6, §3

[6] = system: S.aureus 52 (MRSA); test: Broth dilution MIC/MBC, clinical MRSA isolate; assay type: cell-based; conditions: Staphylococcus aureus, clinical MRSA S.aureus 52
Source text: as §4, §5, §6, §3

[7] = system: S.aureus 53 (MRSA); test: Broth dilution MIC/MBC, clinical MRSA isolate; assay type: cell-based; conditions: Staphylococcus aureus, clinical MRSA S.aureus 53
Source text: as §4, §5, §6, §3

[8] = system: S.aureus 54 (MRSA); test: Broth dilution MIC/MBC, clinical MRSA isolate; assay type: cell-based; conditions: Staphylococcus aureus, clinical MRSA S.aureus 54
Source text: as §4, §5, §6, §3

[9] = system: MRSA 51 biofilm; test: Biofilm inhibition assay (crystal violet); assay type: cell-based, Staphylococcus aureus; conditions: MRSA 51, 4 × MIC
Method: (§7) For many decades, S. aureus has been identified as the most common etiologic agent of device related infections, associated with biofilm formation. These infections are hard to cure because the specific structure of biofilm confers resistance to the host immune response and to the action of antibiotics.
(§8) Then, 100 µL bacterial suspension prepared from fresh overnight culture by diluting with TSB to obtain the initial inoculum 2 × 10^6 CFU/mL was added. The plates were incubated for 24 h at 37 °C. After the incubation, the wells were discarded and were gently rinsed three times with PBS to remove planktonic staphylococcal cells. Then, contents of the wells were discarded and the biofilm was fixed with 200 µL methanol for 20 min and dried at room temperature for 30 min. The biofilm was stained by adding 200 µL 1.8% crystal violet solution for 15 min. After staining, the plates were rinsed with water and 200 µL bleaching solution (30% ethanol, 30% glacial acetic acid, 40% water) added for 15 min to dissolve the remaining crystal violet. A microplater reader was used to measure the absorbance of the adherent biofilm at 570 nm (OD570). […] The negative control included only the growth medium.

[10] = system: MRSA 52 biofilm; test: Biofilm inhibition assay (crystal violet); assay type: cell-based, Staphylococcus aureus; conditions: MRSA 52, 4 × MIC
Method: as §7, §8

[11] = system: MSSA 58 biofilm; test: Biofilm inhibition assay (crystal violet); assay type: cell-based, Staphylococcus aureus
Method: as §7, §8

[12] = system: MSSA 59 biofilm; test: Biofilm inhibition assay (crystal violet); assay type: cell-based, Staphylococcus aureus; conditions: MSSA 59, 4 × MIC
Method: as §7, §8

[13] = system: Gram-positive reference strains; test: Broth dilution MIC/MBC, summary over Gram-positive reference strains; assay type: cell-based; conditions: summary over the Gram-positive reference strains (Table 1)
Method: […]. The tests were carried out using a serial dilution method, allowing the determination of MIC (minimal concentration inhibiting bacterial growth), MBC (minimal bactericidal concentration), and MFC (minimal fungicidal concentration) values.
as §2, §3

MBC/MIC ([1]; S. a. ATCC 43300): 2
MIC ([1]; Staphylococcus aureus, S. aureus ATCC 43300, read-out: MIC): 8 µg/mL (≈ 15 µM)
MBC/MIC ([2]; S. e. PCM 2118): 1
MIC ([2]; Staphylococcus epidermidis, PCM2118, S. epidermidis PCM 2118, read-out: MIC): 8 µg/mL (≈ 15 µM)
MFC/MIC ([3]; C. a. ATCC 10231): 2
MIC ([3]; Candida albicans, ATCC10231, C. albicans ATCC 10231, read-out: MIC): 64 µg/mL (≈ 120 µM)
MIC ([4]; read-out: MIC): 4 µg/mL (≈ 7.49 µM)
MIC ([5]; read-out: MIC): 4 µg/mL (≈ 7.49 µM)
MIC ([6]; read-out: MIC): 4 µg/mL (≈ 7.49 µM)
MIC ([7]; read-out: MIC): 4 µg/mL (≈ 7.49 µM)
MIC ([8]; read-out: MIC): 4 µg/mL (≈ 7.49 µM)
MIC [13]: 8 µg/mL (≈ 15 µM)
MIC ([13]; read-out: MIC): 8 µg/mL (≈ 15 µM)
SMILES: Cc1cc(S(=O)(=O)NC(=O)CCC2CCCCC2)c(SCc2cccc(C(F)(F)F)c2)cc1Cl [Compound 10, N-[4-Chloro-5-methyl-2-(3-trifluoromethylbenzylthio)benzenesulfonyl]-3-cyclohexylpropanamide]
MBC ([1]; Staphylococcus aureus, S. aureus ATCC 43300, read-out: MBC): 16 µg/mL (≈ 30 µM)
MBC ([2]; S. epidermidis PCM 2118): 8 µg/mL (≈ 15 µM)
MBC ([2]; Staphylococcus epidermidis, PCM2118, S. epidermidis PCM 2118, read-out: MBC): 4 to 16 µg/mL (≈ 7.49 to 30 µM)
MFC ([3]; Candida albicans, ATCC10231, C. albicans ATCC 10231, read-out: MFC): 128 µg/mL (≈ 240 µM)
MBC ([4]; read-out: MBC): > 128 µg/mL
MBC ([5]; read-out: MBC): > 128 µg/mL
MBC ([6]; read-out: MBC): > 128 µg/mL
MBC ([7]; read-out: MBC): > 128 µg/mL
MBC ([8]; read-out: MBC): > 128 µg/mL
inhibition of biofilm formation [9]: 88–89%
inhibition of biofilm formation [10]: 88–89%
inhibition of biofilm formation ([11]; MSSA 58, concentration equal to the MIC): about 91%
inhibition of biofilm formation ([11]; MSSA 58, ½ MIC (2 μg/mL)): 67%
inhibition of biofilm formation [12]: 91%
MBC [13]: 8 to 64 µg/mL
MBC ([13]; read-out: MBC): 8 to 64 µg/mL (≈ 15 to 120 µM)

Source: paper PMC6981581, “N-(2-Arylmethylthio-4-Chloro-5-Methylbenzenesulfonyl)amide Derivatives as Potential Antimicrobial Agents—Synthesis and Biological Studies” (International Journal of Molecular Sciences, 2019)
